Test results: patent US20120184556A1, “SUBSTITUTED ENZOIMIDAZOLESULFONAMIDES AND SUBSTITUTED INDOLESULFONAMIDES AS MGLUR4 POTENTIATORS” (priority 2009, published 2012)

Biological target: T1, human mGluR4 (Homo sapiens, UniProt Q14833)
T1 construct: expressed in transfected cells; host or cells: Chinese Hamster Ovary (CHO) cells
Assay: human mGluR4 potentiation assay, CHO cells, Fluo-4 calcium fluorescence, agonist EC20
Format: cell-based
Conditions: for Emax: CHO, maximum extent of potentiation, human mGluR4, read-out: GluMax; for EC50: potentiation of human mGluR4 response to EC20 agonist, read-out: hEC50
Procedure: The disclosed compounds and compositions can be evaluated for their ability to act as a potentiator of metabotropic glutamate receptor activity, in particular mGluR4 activity, by any suitable known methodology known in the art. For example, Chinese Hamster Ovary (CHO) cells transfected with human mGluR4 or HEK cells co-transfected with rat mGluR4 and the G-protein regulated Inwardly Rectifying Potassium channel (GIRK) were plated in clear bottom assay plates for assay in a Hamamatsu FDSS Fluorometric Plate Reader. The cells were loaded with either the Ca2+-sensitive fluorescent dye Fluo-4 or the thallium responsive dye BTC, AM and the plates were washed and placed into a suitable kinetic plate reader. For human mGluR4 assays, a fluorescence baseline was established for 3-5 seconds, the disclosed compounds were then added to the cells, and the response in cells was measured. Approximately two and a half minutes later, a concentration of mGluR4 agonist (e.g. glutamate or L-AP4) eliciting approximately 20% (EC20) of the maximal agonist response was added to the cells, and the response was measured. Two minutes later, a concentration of mGluR4 agonist (e.g. glutamate or L-AP4) eliciting 80% (EC80) of the maximal agonist response was added to the cells, and the response was measured. For rat mGluR4/GIRK experiments, a baseline was established for approximately five seconds, disclosed compounds were added, and either an EC20 or EC80 concentration of agonist was added approximately two and one half minutes later. Potentiation of the agonist response of mGluR4 by the disclosed compounds was observed as an increase in response to the EC20 concentration of agonist in the presence of compound compared to the response to agonist in the absence of compound. Similarly, antagonism of the agonist response of mGluR4 by the disclosed compounds was observed as a decrease in response to the EC80 concentration of agonist in the presence of compound compared to the response to agonist in the absence of compound.
The above described assay operated in two modes. In the first mode, a range of concentrations of the disclosed compounds are added to cells, followed by a single fixed concentration of agonist. If the compound acts as a potentiatior, an EC50 value for potentiation and a maximum extent of potentiation by the compound at this concentration of agonist is determined by non-linear curve fitting. If the compound acts as a noncompetitive antagonist, an IC50 value is determined by non-linear curve fitting. In the second mode, several fixed concentrations of the disclosed compounds are added to various wells on a plate, followed by a range in concentrations of agonist for each concentration of disclosed compound. The EC50 values for the agonist at each concentration of compound are determined by non-linear curve fitting. A decrease in the EC50 value of the agonist with increasing concentrations of the sample compound (a leftward shift of the agonist concentration-response curve) is an indication of the degree of mGluR4 potentiation at a given concentration of the sample compound. A decrease in the maximal response of the agonist with increasing concentrations of the sample compounds, with or without a rightward shift in agonist potency, is an indication of the degree of noncompetitive antagonism at mGluR4. The second mode also indicates whether the sample compounds also affect the maximum response to mGluR4 to agonists.

T1 sequence (Q14833 33-912): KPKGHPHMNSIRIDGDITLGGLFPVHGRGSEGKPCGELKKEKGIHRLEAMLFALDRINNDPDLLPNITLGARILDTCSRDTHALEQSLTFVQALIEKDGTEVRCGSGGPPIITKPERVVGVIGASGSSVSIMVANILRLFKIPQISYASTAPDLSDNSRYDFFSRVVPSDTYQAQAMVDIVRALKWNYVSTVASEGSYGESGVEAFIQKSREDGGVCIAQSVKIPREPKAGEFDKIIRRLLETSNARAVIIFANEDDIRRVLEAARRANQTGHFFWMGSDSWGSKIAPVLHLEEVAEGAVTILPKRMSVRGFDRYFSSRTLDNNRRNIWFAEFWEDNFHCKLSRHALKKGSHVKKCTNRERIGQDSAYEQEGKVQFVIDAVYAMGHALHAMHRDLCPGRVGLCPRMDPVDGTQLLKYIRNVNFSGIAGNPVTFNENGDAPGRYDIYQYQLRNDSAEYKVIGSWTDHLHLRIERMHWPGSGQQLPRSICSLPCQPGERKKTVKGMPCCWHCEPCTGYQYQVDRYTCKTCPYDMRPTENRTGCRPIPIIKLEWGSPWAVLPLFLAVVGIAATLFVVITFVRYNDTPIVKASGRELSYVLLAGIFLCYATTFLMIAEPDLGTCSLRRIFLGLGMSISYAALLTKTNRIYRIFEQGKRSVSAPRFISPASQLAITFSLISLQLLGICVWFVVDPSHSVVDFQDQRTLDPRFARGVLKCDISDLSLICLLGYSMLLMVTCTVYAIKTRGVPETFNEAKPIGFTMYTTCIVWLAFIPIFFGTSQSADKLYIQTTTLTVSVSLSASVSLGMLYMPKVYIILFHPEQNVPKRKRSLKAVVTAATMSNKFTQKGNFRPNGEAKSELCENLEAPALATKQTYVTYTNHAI

Emax [%] | EC50 [µM] | SMILES
246 | 0.186 | O=S(=O)(Nc1ccccc1F)c1ccc2[nH]c(-c3ccccn3)nc2c1 [Example 33, N-(2-fluorophenyl)-2-(pyridin-2-yl)-1H-benzo[d]imidazole-5-sulfonamide]
149 | 1.1 | O=S(=O)(Nc1ccccc1Cl)c1ccc2[nH]c(-c3cc(Br)no3)nc2c1 [Example 34, 2-(3-bromoisoxazol-5-yl)-N-(2-chlorophenyl)-1H-benzo[d]imidazole-5-sulfonamide]
87 | 1.98 | Cc1cc(-c2nc3cc(S(=O)(=O)Nc4ccccc4Cl)ccc3[nH]2)on1 [Example 35, N-(2-chlorophenyl)-2-(3-methylisoxazol-5-yl)-1H-benzo[d]imidazole-5-sulfonamide]
73 | 0.296 | O=S(=O)(Nc1ccc(F)cc1F)c1ccc2[nH]c(-c3ccccc3)nc2c1 [Example 36, N-(2,4-difluorophenyl)-2-phenyl-1H-benzo[d]imidazole-5-sulfonamide]
118 | 5.49 | O=S(=O)(Nc1ccccc1F)c1ccc2[nH]c(-c3cnccn3)nc2c1 [Example 37, N-(2-fluorophenyl)-2-(pyrazin-2-yl)-1H-benzo[d]imidazole-5-sulfonamide]
42 | 0.369 | O=S(=O)(Nc1ccccc1F)c1ccc2[nH]c(-c3ccsc3)nc2c1 [Example 38, N-(2-fluorophenyl)-2-(thiophen-3-yl)-1H-benzo[d]imidazole-5-sulfonamide]
156 | 4.82 | O=S(=O)(Nc1ccccc1F)c1ccc2[nH]c(-c3ccncn3)nc2c1 [Example 39, N-(2-fluorophenyl)-2-(pyrimidin-4-yl)-1H-benzo[d]imidazole-5-sulfonamide]
222 | 0.756 | O=S(=O)(Nc1ccccc1F)c1ccc2[nH]c(-c3nccs3)nc2c1 [Example 40, N-(2-fluorophenyl)-2-(thiazol-2-yl)-1H-benzo[d]imidazole-5-sulfonamide]
83 | 9.47 | Cn1ccnc1-c1nc2cc(S(=O)(=O)Nc3ccccc3Cl)ccc2[nH]1 [Example 41, N-(2-chlorophenyl)-2-(1-methyl-1H-imidazol-2-yl)-1H-benzo[d]imidazole-5-sulfonamide]
50 | 0.226 | O=S(=O)(Nc1ccc(F)cc1F)c1ccc2[nH]c(-c3ccsc3)nc2c1 [Example 42, N-(2,4-difluorophenyl)-2-(thiophen-3-yl)-1H-benzo[d]imidazole-5-sulfonamide]
69 | 2.83 | O=S(=O)(Nc1ccccc1Cl)c1ccc2[nH]c(-c3ccno3)nc2c1 [Example 43, N-(2-chlorophenyl)-2-(isoxazol-5-yl)-1H-benzo[d]imidazole-5-sulfonamide]
36 | 13.4 | Cc1nc[nH]c1-c1nc2cc(S(=O)(=O)Nc3ccccc3Cl)ccc2[nH]1 [Example 44, N-(2-chlorophenyl)-2-(4-methyl-1H-imidazol-5-yl)-1H-benzo[d]imidazole-5-sulfonamide]
104 | 7.45 | CC1CCN(S(=O)(=O)c2ccc3[nH]c(-c4ccccn4)nc3c2)CC1 [Example 45, 5-((4-methylpiperidin-1-yl)sulfonyl)-2-(pyridin-2-yl)-1H-benzo[d]imidazole]
112 | 2.35 | O=S(=O)(Nc1ccccc1Cl)c1ccc2[nH]c(C3CCCCO3)nc2c1 (stereo not shown) [Example 46, N-(2-chlorophenyl)-2-(tetrahydro-2H-pyran-2-yl)-1H-benzo[d]imidazole-5-sulfonamide]
147 | 0.709 | O=S(=O)(Nc1ccc(F)cc1F)c1ccc2[nH]c(-c3nccs3)nc2c1 [Example 47, N-(2,4-difluorophenyl)-2-(thiazol-2-yl)-1H-benzo[d]imidazole-5-sulfonamide]
85 | 0.313 | CCc1ccc(NS(=O)(=O)c2ccc3[nH]c(-c4ccsc4)nc3c2)cc1 [Example 48, N-(4-ethylphenyl)-2-(thiophen-3-yl)-1H-benzo[d]imidazole-5-sulfonamide]
61 | 1.11 | CN(c1ccccc1F)S(=O)(=O)c1ccc2[nH]c(-c3ccccn3)nc2c1 [Example 50, N-(2-fluorophenyl)-N-methyl-2-(pyridin-2-yl)-1H-benzo[d]imidazole-5-sulfonamide]
252 | 0.099 | O=S(=O)(Nc1ccc(F)cc1F)c1ccc2[nH]c(-c3ccccn3)nc2c1 [Example 51, N-(2,4-difluorophenyl)-2-(pyridin-2-yl)-1H-benzo[d]imidazole-5-sulfonamide]
226 | 0.14 | O=S(=O)(Nc1ccc(F)cc1F)c1ccc2[nH]c(-c3cccc(F)n3)nc2c1 [Example 52, N-(2,4-difluorophenyl)-2-(6-fluoropyridin-2-yl)-1H-benzo[d]imidazole-5-sulfonamide]
59 | > 10 | CN1CCCCC1c1nc2cc(S(=O)(=O)Nc3ccccc3Cl)ccc2[nH]1 (stereo not shown) [Example 53, N-(2-chlorophenyl)-2-(1-methylpiperidin-2-yl)-1H-benzo[d]imidazole-5-sulfonamide]
